Paper PMC13170702 (Nuclear medicine and biology, 2025)

Experiments:
[1] = test system: Sprague-Dawley rats; test: GLP 14-day toxicological study; type: in vivo; conditions: non-radioactive compound given on two consecutive days
[2] = test system: 70 other CNS binding sites; conditions: at 1 μM; cited from earlier work

| SMILES | adverse effects [1] | binding at 70 other CNS binding sites [2] |
| --- | --- | --- |
| COC(=O)[C@@H](N)CC(=O)Nc1ccc2c(c1)Cc1cc(F)ccc1-2 [RP-115] | no overt adverse effects |  |
| NC(CC(=O)Nc1ccc2c(c1)Cc1cc(F)ccc1-2)C(=O)O (centres unmarked) |  | no binding |
